We go through one compound from patent US20160000852A1, “NUTRIENT COMBINATIONS FOR AFFECTING AN AGING PROCESS” (BioMarker Pharmaceuticals, Inc., priority 2013, published 2016).

Common to all, as to assay type: in vivo
The test system of experiment [1] is D-gal exposed mice. In words: Spatial memory test with the Morris Water Maze (MWM). Particulars: D-gal exposure 125 mg/kg/d, 8 weeks; 12 animals. From the text:
The Morris Walter Maze (MWM) was applied to measure cognitive deficiencies in D-gal exposed mice. […] In particular, FIG. 1A illustrates the latency time for finding a platform of control subjects, D-gal subjects and subjects administered Formulas A-C over a period of training days. The subjects, in this case, were mice. Values are illustrated as mean ±SEM of 12 animals. […] In addition, FIG. 1B illustrates the latency distance to the platform of control subjects, D-gal subjects and subjects administered Formulas A-C over the same period of training days as illustrated in FIG. 1A.

Experiment [2] relates to D-gal exposed mice. In words: Coordination test with the Rota-Rod. Particulars: 12 animals. The procedure: FIG. 2 illustrates a coordination test with the Rota-Rod. In addition, latency to fall was tested. Values are mean ±SEM of 12 animals.
The test system of experiment [3] is D-gal exposed mice. Kind of experiment: Grip strength test (forelimb). Conditions: 12 mice. How it is done: It should further be understood that a decrease in strength is a reliable indicator of the aging process. In this aspect, the rodent grip strength test is a putative measure of muscular strength and has been previously used to screen for neuromuscular function. FIG. 3 illustrates the results of a grip strength test. In particular, grip strength of forelimb was tested. Values are means ±SEM of 12 mice. **P<0.01 versus Normal group, ^##P<0.01 versus D-gal group, ^###P<0.001 versus D-gal group.

Experiment [4] concerns mitochondria of gastrocnemius muscle. Kind of experiment: Transmission electron microscopy of gastrocnemius muscle mitochondria. Particulars: D-gal exposed mice. From the text: To understand the grip strength loss caused by D-gal exposure, the morphology of mice gastrocnemius muscles were further evaluated with transmission electron microscopy. FIGS. 4A-4E illustrate the transmission electron microscopy results of the gastrocnemius muscle. In particular, FIG. 4A illustrates the transmission electron microscopy for the control group of subjects (i.e. mice), FIG. 4B illustrates the transmission electron microscopy for the D-gal group, FIG. 4C illustrates the transmission electron microscopy for the Formula A group, FIG. 4D illustrates the transmission electron microscopy for the Formula B group, FIG. 4E illustrates the transmission electron microscopy for the Formula C group. A magnified view of the upper panels in FIGS. 4A-4E are shown in the lower panels.

The test system of experiment [5] is complex I in gastrocnemius mitochondria. Kind of experiment: Complex I activity in gastrocnemius mitochondria. Particulars: D-gal exposed mice; n=12. How it is done:
In view of the abnormal mitochondrial morphology in the skeletal muscle of the D-gal treated mice, the activities of some key enzymes in the electron transport chain (ETC) and the tricarboxylic acid (TCA) cycle were further examined.
(§1) FIG. 7 illustrates the effects of Formulas A-C on the activity of complex I in gastrocnemius and heart mitochondria. Activities of complex I of gastrocnemius (n=12) and heart (n=11) in all groups were assayed. All values are expressed as means ±SEM. **P<0.01 versus Normal group, ^#P<0.05 versus D-gal group, ^##P<0.01 versus D-gal group.

Experiment [6] has as its system complex I in heart mitochondria. In words: Complex I activity in heart mitochondria. Conditions: D-gal exposed mice; n=11. The procedure:
The activity of complex I was also assayed in several other tissues, such as liver, heart, and brain. FIG. 6 illustrates activities of complex I in mitochondria from multiple tissues. As is illustrated by the results shown in FIG. 6, D-gal administration impairs the activity of complex I in gastrocnemius. Values are means ±SEM of 12 mice in gastroanemius, 11 mice in heart and 12 mice in brain and liver. **P<0.01 versus Normal group.
as §1

As for `O=C[C@H](O)[C@@H](O)[C@@H](O)[C@H](O)CO` [D-gal, D-galactose], in experiment [1], the “spatial memory (latency time and latency distance to platform) in MWM” value is “did not affect the escape latency or swimming distance”. Besides, in experiment [2], the “motor coordination (latency to fall) in Rota-Rod test” value is “No difference in latency time”. Moreover, the “grip strength of forelimb” value in experiment [3] is reported as “significantly weaker grip strength”. In experiment [4], the “mitochondrial morphology in gastrocnemius muscle” value is “swollen and elongated mitochondria with obvious cristae disruption”. Further, the “complex I activity in gastrocnemius (skeletal muscle) mitochondria” value in experiment [5] is “only complex I activity was impaired”. Also, in experiment [6], the “complex I activity in heart mitochondria” value is “marginal decrease in heart muscle”.
